# US11918610B2, “Methods for diagnosis and treatment of type 1 diabetes” (priority 2018, dated 2024)
# No end group written: not given here.
# Assays:
# [1] = test system: MG1655 wild-type lysogenic strain (bacteriophage λ) biofilm; assay: Prophage induction with mitomycin C in E. coli biofilm: PFU numbers (phage plaque assay); format: cell-based, Escherichia coli; details: for PFU numbers: prophage induction with 1 μg/ml mitomycin C, 48h biofilm; for PFU: Table 17, prophage induction with mitomycin C, 48-h biofilm
# Procedure: (§1) We used 48h old E. coli biofilms formed by amyloid-producing E. coli VT-55. Bacteriophages λ (from our collection) were employed. E. coli lysogenic strains were obtained by infection of host bacteria with phage. Prophages were induced with 1 μg/ml mitomycin C (Sigma). To confirm lytic development of bacteriophage we measured an increase in the number of plaque forming units (PFU) and the reduction of bacterial colony-forming units CFU numbers, throughout the 4 h to 10 h period (Table 2). The PFU number in E. coli biofilm was determined by the production of plaques on control E. coli culture.
# (§2) Next, the E. coli phage/E. coli bacterial cell ratio, which represents the “lytic potential” (FIG. 6) (Waller et al., 2014), was analyzed. E. coli strain MG1655 was used as a host for prophage induction experiments (Jensen 1993). Bacteria were subcultured from freezer stocks onto Mueller-Hinton agar plates (Oxoid) and incubated at 37° C. overnight. All subsequent liquid subcultures were derived from colonies isolated from these plates and were grown in Mueller-Hinton broth (Oxoid). Bacteriophage λ from the inventors' collection was employed. Bacteriophage suspensions were routinely stored in TM buffer (10 mM Tris-HCl, 10 mM MgSO4, pH 7.2) at 4° C. E. coli lysogenic strains were obtained by infection of E. coli MG1655 with the phage and titration of cells on Mueller-Hinton agar plates as previously described (Maniatis et al. 1989). For prophage induction, Mitomycin C (Sigma-Aldrich) was prepared in 0.1 M phosphate buffer (pH 7.2), filtered through a 0.22-μm-pore filter (Millipore Corp., Bedford, Mass.), and stored at 4° C. (Georgopoulos et al., 2002). A modified protocol according to Reyrolle et al. designed for prophage induction on 96-well plates was used (Reyrolle et al., 1982; McDonald et al., 2010). Twenty microliters of an overnight E. coli MG1655 culture, with an absorbance at 600 nm of 0.2, was dispensed in each well of a 96-well flat-bottom polystyrene tissue culture microtiter plate (Sarstedt, Numbrecht, Germany), after which 180 μl of MHB (Oxoid) was added. The plates were incubated at 37° C. for 48 h. Induction of prophages in the E. coli biofilms was provoked by the addition of mitomycin C (Sigma) to a final concentration 1 μg/ml to each well. The plates were further incubated at 37° C. and samples were taken at 4, 6, 8, and 10 h following prophage induction.
# (§3) The inventors evaluated how the die-off of E. coli populations due to prophage induction could lead to amyloid release. The inventors used 48-h old E. coli biofilms with confirmed curli expression. Curli formation on 48-h colonies was visible with the naked eye on petri dishes (data not shown). Prophages were induced with mitomycin C. Lytic bacteriophage development was confirmed as an increase in plaque forming units (PFU) and a reduction in colony-forming units (CFU).
# (§4) CFU and PFU were determined as follows. To estimate CFU, biofilms were thoroughly scraped (Tetz et al., 2009). Well contents were aspirated, placed in 1 ml of isotonic phosphate buffer (0.15 M, pH 7.2), and the total CFU number was determined by serial dilution and plating on Mueller-Hinton agar. The number of phage virions produced after induction was estimated by phage titration (using strain MG1655 as a host) and phage plaque assay. Following induction, at the indicated times 200-μl samples of biofilms were collected. Then, 30 μl of chloroform was added to each sample, the mixture was vortexed and centrifuged at 3000×g for 5 min in a microcentrifuge (Eppendorf 5415D). A supernatant fraction of the bacterial lysate was further used. The phage titer (number of phages per ml) was determined using the double agar overlay assay method as described previously (Yuan et al., 2012). To this end, 2.5 μl of each titration point of phage lysate was spotted on Mueller-Hinton agar (Oxoid). […]
# [2] = test system: MG1655 wild-type lysogenic strain biofilm; assay: Prophage induction with mitomycin C in E. coli biofilm: CFU numbers; format: cell-based, Escherichia coli; details: for CFU numbers: prophage induction with 1 μg/ml mitomycin C, 48h biofilm; for CFU: Table 17, prophage induction with mitomycin C, 48-h biofilm
# Procedure: as §1, §2, §3, §4
# [3] = test system: E. coli biofilm; assay: Release of bacterial amyloid from E. coli biofilm after prophage induction (Congo Red absorbance of supernatant); format: cell-based, Escherichia coli; details: for Congo Red absorbance of biofilm supernatant (release of bacterial amyloid): 10h following prophage induction
# Procedure: Next, the effect of prophage induction on E. coli biofilm to amyloid release was evaluated. The amount of amyloid fibers in the biofilm supernatant was determined following prophage induction. Biofilm supernatant was collected and centrifuged at 5000 rpm (Eppendorf 5113) to sediment cells. Supernatant was filtered with […] and heated to eliminate contaminating proteins by incubating in a boiling water bath for 10 minutes, under the assumption that the aggregated β-sheet amyloid is heat resistant. To quantify the amount of aggregated amyloid, its binding to the amyloid diagnostic dye Congo Red (CR) was evaluated (Table 12). CR added to a final concentration of 10 μg/mL at pH 4.5 was tested using a BioRad UV/Vis spectrophotometer at 25° C. After 5 minutes of equilibration, the absorbance spectra were recorded from 400 to 600 nm. Each trace represents the average of 3 accumulated spectra.
# Next, the inventors evaluated the effect of prophage induction on the amount of amyloid fibers released into the biofilm supernatant. Supernatant CR depletion assays were performed as follows. The amount of bacterial amyloid following prophage induction was measured in the supernatant of E. coli MG1655 biofilms. Biofilms were obtained as described above. Biofilm supernatant was taken at 4, 6, 8, and 10 h following prophage induction. To isolate aggregated amyloid fibers from the supernatant, the supernatant was centrifuged at 10,000×g, filtered through a 0.22 μm filter to separate bacterial cells, and treated with proteinase K to eliminate contaminating proteins. CR (Sigma-Aldrich) was added to a final concentration of 10 μg/ml from a filtered stock solution of 1 mg/ml (Reichhardt et al., 2015). After 5 min of equilibration, absorbance spectra were recorded from 400 to 600 nm (SmartSpec 3000, Bio-Rad). Each trace represents the average of 5 accumulated spectra. For all samples, spectra of corresponding nutrient MHB solutions with CR were used as blanks.
# To quantify the amount of aggregated amyloid, its binding to the amyloid-diagnostic dye was evaluated by a Congo red (CR) assay (Reichhardt et al., 2015). A significant increase in CR absorbance was observed upon binding to supernatant 8 h following prophage induction as compared with control samples (FIG. 7). Like for other curli fibers, […] of the E. coli supernatant induced a spectral shift of the CR solution, with a maximum difference in absorbance between CR alone and CR bound to amyloid fibers at ˜541 nm (Chapman et al., 2002).
# [4] = test system: non-obese diabetic mice (NOD/ShiLtJ) colonized with E. coli VT-55; format: in vivo; details: NOD mice gavaged with E. coli VT-55; regimen of each agent as in Table 3; positive control (no therapy) 16, negative controls 24 and 26
# Procedure: For this study non-obese diabetic mice (NOD/ShiLtJ) 8 weeks old (Jackson Laboratory, Bar Harbor, Me., USA) were housed and bred under specific pathogen-free conditions. Mice were maintained in a temperature controlled (22±2° C.) animal facility with a 12 hour light/dark cycle and were allowed free access to food and acidified drinking water. To increase the efficacy of E. coli transfer, all animals were exposed to antibiotic treatment before the transfer of E. coli. Starting at three weeks of age, recipient mice were treated with ampicillin (1 g/L) in the drinking water for the next 4 weeks. The bacterial strains used: E. coli strain VT-55—a wild-type, amyloid-producing strain. E. coli VT-55 bacteria were administered with oropharyngeal gavage to 8 week old female mice at 10^8 CFU, 2 times a week. Acceleration of T1D development was accessed by measuring blood glucose in a manner consistent with diabetes monitoring, using a FreeStyle Lite meter and test strips (Abbott). Blood glucose was evaluated weekly via a tail vein. T1D development was defined as occurring after two consecutive blood glucose measurements of at least 250 mg/dL.
# TTR was expressed in E. coli VT-243. The TTR protein was precipitated from the supernatant of a 48 hour culture of E. coli VT-243 after centrifugation (12,000×g, 20 minutes 4° C.) of the lysed cells in the gradient 40-90% ammonium sulfate fraction (1.8-3.6 M). The precipitate that contained TTR was dialyzed overnight against 10 mM sodium phosphate buffer, pH 7.5, 100 mM KCl, 1 mM EDTA. The same volume of 200 mM sodium acetate buffer (pH 4.4, 100 mM KCl, 1 mM EDTA) was added to achieve a final pH of 4.5, and the mixture was then incubated for 18 hours at 37° C. Following centrifugation (45 min, 30,000×g, 4° C.), the supernatant was gel filtrated (Superdex 75) to elute phosphate buffer.
# To develop nanoparticles with siRNA, we used cholesterol, distearoyl-sn-glycerol-3-phosphocholine (DSPC) and PEG2000-DMG (all Sigma). Nanoparticles were prepared by dissolving the 306013 lipidoid, cholesterol, DSPC, and PEG2000-DMG with final molar ratio of 50:38.5:10:1.5 in a 90% ethanol enriched with 10% 10 nM sodium citrate. Particles were formed following vortexing of equal volumes of siRNA solution with the lipid solution and subsequent dilution in PBS. Mice were orally gavaged with nanoparticles loaded with siRNA at a dose of 5 mg/kg.
# The EcVac vaccine consisted of conjugates containing the 0-antigens of serotypes 06 of E. coli VT-55. […] The suspension for iv administration was made in TBS, (pH 7.4; 25 mmol Tris, 137 mmol NaCl, 2.8 mmol KCl).
# Balb/c mice were immunized (10 μg) intraperitoneally and boosted (1 μg) subcutaneously with the E. coli amyloid isolated as previously described. Splenocytes were removed under sterile conditions, washed and hybridized to murine plasmacytoma parent cell line SP2/OAg14 using 40% polyethylene glycol and a spleen cell to plasmacytoma cell ratio of 5:1. Cells were plated in 96-well microtiter (Sarstedt) plates at 100,000 cells/per well with DMEM supplemented with 10% fetal bovine serum. Following 48h, cells were supplemented with hypoxanthine (100 PM) containing medium. After three washes with PBS-1% BSA, the presence of specific antibody binding was detected by ELISA. Serotype specific wells were cloned. Pristine-primed BALB/c mice were IP injected with 1×10^7 hybridoma cells. Ascites fluid was collected 14 days later, centrifuged (5000 g, 20 min, Eppendorf) and stored at −80° C. before use.
# [5] = 48-h old E. coli biofilms, mitomycin C 1 μg/ml
compound,measurement,setting,value
CO[C@@]12[C@H](COC(N)=O)C3=C(C(=O)C(C)=C(N)C3=O)N1C[C@@H]1N[C@@H]12 [Mytomicin C],PFU numbers,[1]; 4 h,2.3log10 +/− log10 PFU/ml
same,PFU numbers,[1]; 6 h,9.3log10 +/− log10 PFU/ml
same,PFU numbers,[1]; 8 h,10.4log10 +/− log10 PFU/ml
same,PFU numbers,[1]; 10 h,11.2log10 +/− log10 PFU/ml
same,CFU numbers,[2]; 4 h,8.8log10 +/− log10 CFU/ml
same,CFU numbers,[2]; 6 h,8.2log10 +/− log10 CFU/ml
same,CFU numbers,[2]; 8 h,7.6log10 +/− log10 CFU/ml
same,CFU numbers,[2]; 10 h,7.4log10 +/− log10 CFU/ml
same,Congo Red absorbance of biofilm supernatant (release of bacterial amyloid),[3]; wavelength 400 nm,0
same,Congo Red absorbance of biofilm supernatant (release of bacterial amyloid),[3]; wavelength 450 nm,0.156
same,Congo Red absorbance of biofilm supernatant (release of bacterial amyloid),[3]; wavelength 500 nm,0.338
same,Congo Red absorbance of biofilm supernatant (release of bacterial amyloid),[3]; wavelength 541 nm,0.421
same,Congo Red absorbance of biofilm supernatant (release of bacterial amyloid),[3]; wavelength 550 nm,0.345
same,Congo Red absorbance of biofilm supernatant (release of bacterial amyloid),[3]; wavelength 600 nm,0.015
"CO[C@@]12[C@H](COC(N)=O)C3=C(C(=O)C(C)=C(N)C3=O)N1C[C@@H]1N[C@@H]12 [mitomycin C, reference compound]",Plaque forming units (PFU) after prophage induction (in words),[1]; [5],increase
same,Colony-forming units (CFU) after prophage induction (in words),[2]; [5],reduction
same,Amyloid release from preformed E. coli biofilms after prophage activation (in words),"[3]; in vitro, mitomycin C 1 μg/ml, 48 h biofilms",pronounced amyloid release
"C[C@H]1c2cccc(O)c2C(=O)C2=C(O)[C@]3(O)C(=O)C(C(N)=O)=C(O)[C@@H](N(C)C)[C@@H]3[C@@H](O)[C@@H]21 [Doxycycline, reference compound]",Median T1D incidence 50% (weeks),[4],25 weeks
CO[C@@]12[C@H](COC(N)=O)C3=C(C(=O)C(C)=C(N)C3=O)N1C[C@@H]1N[C@@H]12 [mytomicin C],PFU,[1]; 4 h,2.3 log10 PFU/ml
same,PFU,[1]; 6 h,9.3 log10 PFU/ml
same,PFU,[1]; 8 h,10.4 log10 PFU/ml
same,PFU,[1]; 10 h,11.2 log10 PFU/ml
same,CFU,[2]; 4 h,8.8 log10 CFU/ml
same,CFU,[2]; 6 h,8.2 log10 CFU/ml
same,CFU,[2]; 8 h,7.6 log10 CFU/ml
same,CFU,[2]; 10 h,7.4 log10 CFU/ml
"O=C(O)C1CSC2=C(C3CC3)C(Cc3cccc4ccccc34)CC(=O)N21 (stereo not drawn) [8-cyclopropyl-7-(1-naphthylmethyl)-5-oxo-2,3,6,7-tetrahydro-5H-[1,3]thiazolo[3,2-a]pyridine-3-carboxylic acid]",Median T1D incidence 50% (weeks),[4],21 weeks
"GGVLVQPG [Larazotide, Glycylglycyl-L-valyl-L-leucyl-L-valyl-L-glutaminyl-L-prolyl-glycine, reference compound]",Median T1D incidence 50% (weeks),[4],24 weeks
Transthyretin: mouse Transthyretin expressed in E. coli VT-243,Median T1D incidence 50% (weeks),[4],24 weeks
"CCCCCCCO[C@H]1O[C@H](CO)[C@@H](O)[C@H](O)[C@@H]1O [n-Heptyl α-D-mannose, reference compound]",Median T1D incidence 50% (weeks),[4],22 weeks
